Values joined by “and” are separate entries in the source; they are usually repeats but may differ in a detail not shown here. Identical values can stand only once.
Tests used:
human CYP1A2 = molecular target: T1, human CYP1A2 (Homo sapiens, UniProt P05177); experiment: CYP1A2 inhibition, 7-ethoxyresorufin fluorescence assay; format: biochemical
T1 construct: purchased Corning Inc
T1 sequence (P05177 1-516): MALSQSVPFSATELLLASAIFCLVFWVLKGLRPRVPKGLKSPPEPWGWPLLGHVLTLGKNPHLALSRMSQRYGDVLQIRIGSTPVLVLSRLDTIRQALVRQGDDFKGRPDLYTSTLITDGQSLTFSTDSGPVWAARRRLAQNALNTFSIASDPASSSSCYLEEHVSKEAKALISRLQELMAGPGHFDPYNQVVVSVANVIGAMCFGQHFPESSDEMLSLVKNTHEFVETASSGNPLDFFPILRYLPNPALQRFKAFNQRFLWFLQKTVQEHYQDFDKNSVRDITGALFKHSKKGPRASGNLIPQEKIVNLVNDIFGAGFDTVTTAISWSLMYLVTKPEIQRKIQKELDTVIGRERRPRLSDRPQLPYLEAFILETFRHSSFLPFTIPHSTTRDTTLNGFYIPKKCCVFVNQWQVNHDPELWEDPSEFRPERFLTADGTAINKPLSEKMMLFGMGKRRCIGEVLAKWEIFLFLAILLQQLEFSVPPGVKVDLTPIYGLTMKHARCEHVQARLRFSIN
Description: Inhibition of CYP1A2 activity was determined with commercial heterologously expressed human CYP1A2 enzyme (Corning Inc., Corning, NY, USA) as described earlier (Korhonen et al., [2005]). The metabolic activity was not in the scope of this particular study. The assay was adapted to the 96-well plate format. In each well, a 150 μL incubation volume contained 100 mM Tris-HCl buffer (pH 7.4), 4.2 mM MgCl2,1 μM 7-ethoxyresorufin, 0.5 pmol of cDNA expressed CYP1A2, […] inhibitor, and a NADPH-generating system. All inhibitors were dissolved in ethanol, and the final concentration of ethanol was 2% in all incubations. The reaction was initiated by adding the NADPH-regenerating system after a 10 min preincubation at 37°C, and after a 20 min incubation, the reaction was terminated by the addition of 110 μL of 80% acetonitrile/20% 0.5 M Tris base. The formed fluorescence was measured with a Victor2 plate counter (Perkin-Elmer Life Sciences Wallac, Turku, Finland) at 570 nm excitation and 616 nm emission.

MAO-B = molecular target: T2, MAO-B (Homo sapiens, UniProt P27338); experiment: continuous spectrophotometric MAO-B inhibition assay; format: biochemical; conditions: for LiPE: LiPE = pIC50 - QPlogPo/w, new analogs and pargyline; for IC50: dilution series 50 μM to 1 nM, duplicates, read-out: MAO-B inhibition IC50; for MAO-B inhibition %: 10 µM, 2h
T2 construct: purchased Sigma-Aldrich
T2 sequence (P27338 1-520): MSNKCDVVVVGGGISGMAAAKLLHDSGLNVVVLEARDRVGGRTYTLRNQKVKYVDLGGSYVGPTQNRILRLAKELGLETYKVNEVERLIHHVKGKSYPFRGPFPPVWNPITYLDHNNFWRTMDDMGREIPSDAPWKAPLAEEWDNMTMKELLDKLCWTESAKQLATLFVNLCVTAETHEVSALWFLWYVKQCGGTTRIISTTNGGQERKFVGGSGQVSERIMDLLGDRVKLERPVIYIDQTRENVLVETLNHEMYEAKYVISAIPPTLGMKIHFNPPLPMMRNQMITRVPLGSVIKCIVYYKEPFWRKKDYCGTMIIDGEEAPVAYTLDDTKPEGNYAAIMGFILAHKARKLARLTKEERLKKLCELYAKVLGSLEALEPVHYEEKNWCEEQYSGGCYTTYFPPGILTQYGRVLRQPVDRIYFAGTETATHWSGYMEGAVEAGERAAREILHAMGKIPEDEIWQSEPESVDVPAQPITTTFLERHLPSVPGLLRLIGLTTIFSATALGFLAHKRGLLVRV
Description: Both monoamine oxidase A (MAO-A) and B (MAO-B) protein and the reagents for the chromogenic solution of vanillic acid (4-hydroxy-3-methoxylbenzoic acid, 97% purity), 4-aminoantipyrine (reagent grade), horseradish peroxidase and the substrate tyramine hydrochloride (minimum 99% purity) as well as the potassium phosphate buffer, which was prepared using potassium phosphate dibasic trihydrate (≥99% ReagentPlus™) and potassium phosphate monobasic (minimum 98% purity, molecular biology tested), were purchased from Sigma-Aldrich (St. Louis, MO, USA) for the spectrophotometric assay.
The protocol for continuous spectrophotometric assay (Holt et al., [1997]) was followed in the activity measurements. The assay was performed in 0.2 M potassium phosphate buffer pH 7.6 on 96-well plates (Nunc™ 96F microwell plate without a lid, Nunc A/S, Roskilde, DK) in 200 μl total volume. The chromogenic solution containing 1 mM vanillic acid, 500 μM 4-aminoantipyrine and 8 U/ml horseradish peroxidase in 0.2 M potassium phosphate buffer pH 7.6 was mixed anew for each measurement. 5 mM tyramine solution was used as the substrate. In order to determine the activity of both MAO-B and MAO-A, concentration series as duplicates were prepared. The protein was combined with the chromogenic solution and incubated 30 min at 37°C. The background signal was measured using multilabel reader (Victor^TM X4, 2030 Multilabel Reader, PerkinElmer, Waltham, MA, USA) at A490 before reaching the total 200 μl volume by adding 20 μl of tyramine to final concentration of 0.5 mM on the plate. As a result, the final concentration of the chromogenic solution on the plate was 250 μM vanillic acid, 125 μM 4-aminoantipyrine and 2 U/ml horseradish peroxide. After adding the substrate, the plates were measured 300 times every 15 s using 1 s exposure time. The device was set to 37°C for the duration of the experiment.
The experiment conditions should produce absorbance change of ~0.35 (Holt et al., [1997]). […] The same wide panel of coumarin derivatives was additionally used to analyze the MAO-A inhibition at 100 μM (Table 1, Supplementary Table S1).
The measured data was then fitted on a curve using non-linear regression with the equation for log[inhibitor] vs. response. The IC50 values were therefore determined based on the curve fit. The fitted curves are shown on –log scale in Supplementary Figures S1, S2.

Row | Structure (SMILES) | IC50 (human CYP1A2) | inhibition at 10 µM (MAO-B) | LiPE (MAO-B) | IC50 (MAO-B) | MAO-B inhibition % (MAO-B) | MAO-B inhibition (in words) (MAO-B)
1 | COc1ccc2oc(=O)c(-c3cc(F)c(F)cc3F)cc2c1 [derivative 15, 6-methoxy-3-(2,4,5-trifluorophenyl)-2H-chromen-2-one] | 3 µM | 87.2% | 2.80 | 0.292 µM | – | –
2 | O=c1oc2cc(O)ccc2cc1-c1ccccc1 [derivative 41] | 8 µM | – | – | – | 23.82% | activity is lost
3 | O=c1oc2cc(O)ccc2cc1-c1ccc(O)cc1 [derivative 30] | 22 µM | – | – | – | 52.68% | –
4 | Cc1ccc(-c2cc3ccc(O)cc3oc2=O)cc1 [derivative 27] | 180 µM | – | – | – | 61.91% | –
5 | O=c1oc2ccccc2cc1-c1cccc(O)c1 [derivative 31] | 7 µM | – | – | – | 49.60% | –
6 | O=c1oc2ccc(O)cc2cc1-c1cccc(O)c1 [derivative 38] | 24 µM | – | – | – | 27.16% | –
7 | COc1ccc2cc(-c3cc(F)c(F)cc3F)c(=O)oc2c1 [derivative 16, 7-methoxy-3-(2,4,5-trifluorophenyl)-2H-chromen-2-one] | 4.5 µM | 77.6% | 2.13 | 1.43 µM | – | –
8 | O=c1oc2ccccc2cc1-c1ccc(O)cc1 [derivative 29] | 26 µM | – | – | – | 53.65% | –
9 | COc1cccc(-c2cc3ccc(OC)cc3oc2=O)c1 [derivative 25] | 35 µM | – | – | – | 67.49% | –
10 | COc1ccc(-c2cc3ccc(O)cc3oc2=O)cc1 [derivative 12, 7-hydroxy-3-(4-methoxyphenyl)-2H-chromen-2-one] | 170 µM | 85.9% | 3.53 | 0.955 µM | – | –

The remaining lines, values ahead:

Row | IC50 (human CYP1A2) | inhibition at 10 µM (MAO-B) | LiPE (MAO-B) | IC50 (MAO-B) | MAO-B inhibition % (MAO-B) | MAO-B inhibition (in words) (MAO-B) | Structure (SMILES)
11 | 17 µM | 93.9% | 2.72 | 0.617 µM | – | – | COc1ccc2oc(=O)c(-c3ccc(N(C)C)cc3)cc2c1 [derivative 18, 3-(4-(dimethylamino)phenyl)-6-methoxy-2H-chromen-2-one]
12 | 2.3 µM | 112% | 3.53 | ~0.23 µM and 0.23 µM and 0.231 µM | – | – | COc1cccc(-c2cc3cc(OC)ccc3oc2=O)c1 [derivative 8, 6-methoxy-3-(3-methoxyphenyl)-2H-chromen-2-one]
13 | 1.5 µM | 94.9% | 3.35 | 0.831 µM | – | – | COc1ccc2oc(=O)c(-c3ccc(O)c(F)c3)cc2c1 [derivative 22, 3-(3-fluoro-4-hydroxyphenyl)-6-methoxy-2H-chromen-2-one]
14 | 3 µM | 89.1% | 3.37 | 1.06 µM | – | – | O=c1oc2ccc(O)cc2cc1-c1ccc(F)cc1 [derivative 24, 3-(4-fluorophenyl)-6-hydroxy-2H-chromen-2-one]
15 | 114 µM | – | – | – | 59.20% | – | CC(=O)Oc1ccc2cc(-c3ccc(F)cc3)c(=O)oc2c1 [derivative 28]
16 | 171 µM | 105% | 2.11 | 0.343 µM | – | – | Cc1ccc2oc(=O)c(-c3ccc(C(F)(F)F)cc3)cc2c1 [derivative 5, 6-methyl-3-(4-(trifluoromethyl)phenyl)-2H-chromen-2-one]
17 | 33 µM | – | – | – | 15.50% | – | O=c1oc2ccc(O)cc2cc1-c1ccc(O)cc1 [derivative 48]
18 | 3 µM | 83.5% | 2.46 | 0.902 µM | – | – | Cc1ccc2oc(=O)c(-c3ccc(F)cc3)cc2c1 [derivative 23, 3-(4-fluorophenyl)-6-methyl-2H-chromen-2-one]
19 | 3 µM | 88.8% | 3.04 | 0.433 µM | – | – | COc1ccc2oc(=O)c(-c3ccc(F)cc3)cc2c1 [derivative 21, 3-(4-fluorophenyl)-6-methoxy-2H-chromen-2-one]
20 | 30 µM | 101% | 3.70 | 0.391 µM | – | – | COc1ccc2cc(-c3ccc(O)c(F)c3)c(=O)oc2c1 [derivative 20, 3-(3-fluoro-4-hydroxyphenyl)-7-methoxy-2H-chromen-2-one]
21 | 86 µM | – | – | – | 47.64% | – | COc1ccc(-c2cc3cccc(O)c3oc2=O)cc1 [derivative 33]
22 | 240 µM | – | – | – | 19.73% | – | COc1ccc2oc(=O)c(-c3ccc(Oc4ccc(F)cc4)cc3)cc2c1 [derivative 46]
23 | 240 µM | – | – | – | 26.44% | – | O=c1oc2cc(O)ccc2cc1-c1ccc(F)cc1 [derivative 39]
24 | 1.6 µM | 90.3% | 3.04 | 0.798 µM | – | – | COc1cccc(-c2cc3ccccc3oc2=O)c1 [derivative 11, 3-(3-methoxyphenyl)-2H-chromen-2-one]
25 | 26 µM | – | – | – | 41.12% | – | COc1ccc(-c2cc3ccccc3oc2=O)cc1 [derivative 36]
